Laboratory results published in PubChem BioAssay AID1919007 (Molecular Pharmacology Branch, DTP, NCI, 2023).

Tested on: A498 complex spheroids with HUVEC/MSC, growth
Experiment: Anticancer human tumor A498 cell line growth inhibition [AhR];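 note: seven day exposure starting three days after spheroid seeding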;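 for viability, T/C: luminescence signal used as a surrogate for viable cells; luminescence viability scaled so 100% equals DMSO vehicle wells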
Settings: for IC50: curve of first compound; for viability, T/C: stronger effect = lower value
How it was run: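 Complex tumor spheroids co-cultured with HUVEC and human MSC stroma; AhR antagonists tested in combination with standard-of-care and investigational agents. Top concentration at or near clinical Cmax (else 10 microM), half-log dilutions; growth expressed as percent test/control.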

[1] = second compound 0.1 µM, first compound 0.0316 µM
[2] = second compound 0.1 µM, first compound 0.1 µM
[3] = second compound 0.316 µM, first compound 0.0316 µM
[4] = second compound 0.316 µM, first compound 0.1 µM
[5] = second compound 1 µM, first compound 0.0316 µM
[6] = second compound 1 µM, first compound 0.1 µM
[7] = second compound 3.16 µM, first compound 0.0316 µM
[8] = second compound 3.16 µM, first compound 0.1 µM
[9] = second compound 10 µM, first compound 0.0316 µM
[10] = second compound 10 µM, first compound 0.1 µM

Cn1ncnc1C1c2n[nH]c(=O)c3cc(F)cc(c23)NC1c1ccc(F)cc1 (stereo not given) + Cc1ccccc1N=Nc1ccc(NC(=O)c2ccnn2C)c(C)c1 gave an IC50 (second compound 0.1 µM) greater than 100 nM, an IC50 (second compound 0.316 µM) greater than 100 nM and an IC50 (second compound 1 µM) greater than 100 nM. The IC50 (second compound 3.16 µM) was greater than 100 nM, the IC50 (second compound 10 µM) was greater than 100 nM and the viability, T/C (second compound 0.1 µM, first compound 0.000316 µM) was 102%. For the same molecule, the viability, T/C (second compound 0.1 µM, first compound 0.001 µM) was 93.6%, the viability, T/C (second compound 0.1 µM, first compound 0.00316 µM) was 92.2% and the viability, T/C (second compound 0.1 µM, first compound 0.01 µM) was 94%. The viability, T/C [1] was 86%, the viability, T/C [2] was 88% and the viability, T/C (second compound 0.316 µM, first compound 0.000316 µM) was 96.3%. For the same molecule, the viability, T/C (second compound 0.316 µM, first compound 0.001 µM) was 91.5%, the viability, T/C (second compound 0.316 µM, first compound 0.00316 µM) was 95.1% and the viability, T/C (second compound 0.316 µM, first compound 0.01 µM) was 93.3%. It also gave a viability, T/C [3] of 90.4%, a viability, T/C [4] of 88.2% and a viability, T/C (second compound 1 µM, first compound 0.000316 µM) of 93.5%. The viability, T/C (second compound 1 µM, first compound 0.001 µM) was 89%, the viability, T/C (second compound 1 µM, first compound 0.00316 µM) was 85.6% and the viability, T/C (second compound 1 µM, first compound 0.01 µM) was 81.2%. It also gave a viability, T/C [5] of 81.5%, a viability, T/C [6] of 87.3% and a viability, T/C (second compound 3.16 µM, first compound 0.000316 µM) of 83.7%. It also gave a viability, T/C (second compound 3.16 µM, first compound 0.001 µM) of 86.8%, a viability, T/C (second compound 3.16 µM, first compound 0.00316 µM) of 88.7% and a viability, T/C (second compound 3.16 µM, first compound 0.01 µM) of 84.7%. The viability, T/C [7] was 83.2%, the viability, T/C [8] was 73.7% and the viability, T/C (second compound 10 µM, first compound 0.000316 µM) was 82%. It also gave a viability, T/C (second compound 10 µM, first compound 0.001 µM) of 93%, a viability, T/C (second compound 10 µM, first compound 0.00316 µM) of 90.8% and a viability, T/C (second compound 10 µM, first compound 0.01 µM) of 85%. The viability, T/C [9] was 79.6% and the viability, T/C [10] was 81.7%.

For NS(=O)(=O)OCC1CC(n2ccc3c(NC4CCc5ccccc54)ncnc32)CC1O (stereo not given) + Cc1ccccc1N=Nc1ccc(NC(=O)c2ccnn2C)c(C)c1, the IC50 (second compound 0.1 µM) was 334 nM, the IC50 (second compound 0.316 µM) was 359 nM and the IC50 (second compound 1 µM) was 316 nM. The IC50 (second compound 3.16 µM) was 341 nM, the IC50 (second compound 10 µM) was 348 nM and the viability, T/C [1] was 87.8%. The viability, T/C [2] was 83.8%, the viability, T/C (second compound 0.1 µM, first compound 0.316 µM) was 49.3% and the viability, T/C (second compound 0.1 µM, first compound 1 µM) was 31.3%. For the same molecule, the viability, T/C (second compound 0.1 µM, first compound 3.16 µM) was 26%, the viability, T/C (second compound 0.1 µM, first compound 10 µM) was 20.1% and the viability, T/C [3] was 88.5%. For the same molecule, the viability, T/C [4] was 83.8%, the viability, T/C (second compound 0.316 µM, first compound 0.316 µM) was 51.2% and the viability, T/C (second compound 0.316 µM, first compound 1 µM) was 31%. For the same molecule, the viability, T/C (second compound 0.316 µM, first compound 3.16 µM) was 25.7%, the viability, T/C (second compound 0.316 µM, first compound 10 µM) was 21.3% and the viability, T/C [5] was 86.2%. For the same molecule, the viability, T/C [6] was 78%, the viability, T/C (second compound 1 µM, first compound 0.316 µM) was 49.2% and the viability, T/C (second compound 1 µM, first compound 1 µM) was 30.1%. The viability, T/C (second compound 1 µM, first compound 3.16 µM) was 24.2%, the viability, T/C (second compound 1 µM, first compound 10 µM) was 21.9% and the viability, T/C [7] was 83.5%. The viability, T/C [8] was 77.3%, the viability, T/C (second compound 3.16 µM, first compound 0.316 µM) was 49.6% and the viability, T/C (second compound 3.16 µM, first compound 1 µM) was 33%. The viability, T/C (second compound 3.16 µM, first compound 3.16 µM) was 25.9%, the viability, T/C (second compound 3.16 µM, first compound 10 µM) was 22.7% and the viability, T/C [9] was 78.2%. The viability, T/C [10] was 71.7%, the viability, T/C (second compound 10 µM, first compound 0.316 µM) was 50.5% and the viability, T/C (second compound 10 µM, first compound 1 µM) was 33.9%. The viability, T/C (second compound 10 µM, first compound 3.16 µM) was 25% and the viability, T/C (second compound 10 µM, first compound 10 µM) was 23.2%.

In the case of Nc1ncn(C2CC(O)C(CO)S2)c(=O)n1 (stereo not given) + Cc1ccccc1N=Nc1ccc(NC(=O)c2ccnn2C)c(C)c1, the IC50 (second compound 0.1 µM) is reported as greater than 300 nM, the IC50 (second compound 0.316 µM) is reported as greater than 300 nM and the IC50 (second compound 1 µM) is reported as greater than 300 nM. It also gave an IC50 (second compound 3.16 µM) greater than 300 nM, an IC50 (second compound 10 µM) greater than 300 nM and a viability, T/C (second compound 0.1 µM, first compound 0.000949 µM) of 93.5%. The viability, T/C (second compound 0.1 µM, first compound 0.003 µM) was 97.4%, the viability, T/C (second compound 0.1 µM, first compound 0.00949 µM) was 101% and the viability, T/C (second compound 0.1 µM, first compound 0.03 µM) was 89.8%. The viability, T/C (second compound 0.1 µM, first compound 0.0949 µM) was 89.9%, the viability, T/C (second compound 0.1 µM, first compound 0.3 µM) was 76.8% and the viability, T/C (second compound 0.316 µM, first compound 0.000949 µM) was 98.2%. For the same molecule, the viability, T/C (second compound 0.316 µM, first compound 0.003 µM) was 101%, the viability, T/C (second compound 0.316 µM, first compound 0.00949 µM) was 93.3% and the viability, T/C (second compound 0.316 µM, first compound 0.03 µM) was 91.6%. It also gave a viability, T/C (second compound 0.316 µM, first compound 0.0949 µM) of 88.5%, a viability, T/C (second compound 0.316 µM, first compound 0.3 µM) of 78.1% and a viability, T/C (second compound 1 µM, first compound 0.000949 µM) of 92%. It also gave a viability, T/C (second compound 1 µM, first compound 0.003 µM) of 93.1%, a viability, T/C (second compound 1 µM, first compound 0.00949 µM) of 91.7% and a viability, T/C (second compound 1 µM, first compound 0.03 µM) of 89.2%. For the same molecule, the viability, T/C (second compound 1 µM, first compound 0.0949 µM) was 79.6%, the viability, T/C (second compound 1 µM, first compound 0.3 µM) was 80.9% and the viability, T/C (second compound 3.16 µM, first compound 0.000949 µM) was 89.8%. It also gave a viability, T/C (second compound 3.16 µM, first compound 0.003 µM) of 94.2%, a viability, T/C (second compound 3.16 µM, first compound 0.00949 µM) of 97.4% and a viability, T/C (second compound 3.16 µM, first compound 0.03 µM) of 79.3%. For the same molecule, the viability, T/C (second compound 3.16 µM, first compound 0.0949 µM) was 77.5%, the viability, T/C (second compound 3.16 µM, first compound 0.3 µM) was 71.3% and the viability, T/C (second compound 10 µM, first compound 0.000949 µM) was 88.2%. For the same molecule, the viability, T/C (second compound 10 µM, first compound 0.003 µM) was 89%, the viability, T/C (second compound 10 µM, first compound 0.00949 µM) was 87.8% and the viability, T/C (second compound 10 µM, first compound 0.03 µM) was 89.1%. It also gave a viability, T/C (second compound 10 µM, first compound 0.0949 µM) of 80.8% and a viability, T/C (second compound 10 µM, first compound 0.3 µM) of 75.7%.
